Measured values published in US20060069132A1, “Azolecarboxamide herbicides” (priority 2004, published 2006).

What was measured:
[1] = tested on: small flower umbrella sedge; assay: Test B flooded paddy test; assay type: in vivo, Cyperus difformis; settings: 1000 g ai/ha, scale 0 to 100 (0 no effect, 100 complete control)
Method in brief: (§1)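 Visual ratings, 0 (no effect) to 100 (complete control), made versus controls after 13–15 d greenhouse. Paddy plants treated at 2-leaf stage; postemergence plants at 1- to 4-leaf stage, 2–18 cm tall.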

wild oat = assay: Test B postemergence herbicide test; assay type: in vivo, Avena fatua; settings: postemergence
Method in brief: (§2)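 After treating 2-leaf paddy plants or 2–18 cm postemergence plants (1 to 4 leaves) with formulated chemical, researchers kept them in a greenhouse for 13–15 days. Effects were judged visually versus controls: 0 indicates none, 100 total control.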

corn = assay: Test B pre-/postemergence herbicide test; assay type: in vivo, Zea mays; settings: for Corn plant response rating: postemergence
Method in brief: (§3)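 Pre: seeds sown, then sprayed. Post: 1–4-leaf plants (2–18 cm) sprayed at the same time. Paddy: flooded, treated at 2-leaf stage. Formulation: non-phytotoxic solvent with surfactant. Greenhouse 13–15 days; visual 0–100 score relative to controls.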

barnyardgrass [2] = assay: Test B flooded paddy test; assay type: in vivo, Echinochloa crus-galli; settings: 1000 g ai/ha, scale 0 to 100 (0 no effect, 100 complete control)
Method in brief: as §1

blackgrass = assay: Test B postemergence herbicide test; assay type: in vivo, Alopecurus myosuroides; settings: postemergence
Method in brief: as §1

pigweed = assay: Test B pre-/postemergence herbicide test; assay type: in vivo, Amaranthus retroflexus; settings: for Pigweed plant response rating: postemergence
Method in brief: as §3

velvetleaf = assay: Test B pre-/postemergence herbicide test; assay type: in vivo, Abutilon theophrasti; settings: for Velvetleaf plant response rating: postemergence
Method in brief: as §3

barnyardgrass [3] = assay: Test B pre-/postemergence herbicide test; assay type: in vivo, Echinochloa crus-galli; settings: for Barnyardgrass plant response rating: postemergence
Method in brief: (§4)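 Visual rating, 0 (no effect) to 100 (complete control), versus untreated controls after 13–15 d in greenhouse. Pre- and postemergence applications (postemergence plants 2–18 cm, 1–4 leaves); flooded paddy arm at 2-leaf stage. Compounds in non-phytotoxic solvent plus surfactant.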

wheat = assay: Test B postemergence herbicide test; assay type: in vivo, Triticum aestivum; parameters: key to Wheat plant response rating: 0 = no effect, 100 = complete control; settings: postemergence
Method in brief: as §2

ducksalad = assay: Test B flooded paddy test; assay type: in vivo, Heteranthera limosa; settings: 1000 g ai/ha, scale 0 to 100 (0 no effect, 100 complete control)
Method in brief: as §1

large crabgrass = assay: Test B pre-/postemergence herbicide test; assay type: in vivo, Digitaria sanguinalis; settings: for Crabgrass, Large plant response rating: postemergence
Method in brief: as §3

rice [4] = assay: Test B flooded paddy test; assay type: in vivo, Oryza sativa; settings: 1000 g ai/ha, scale 0 to 100 (0 no effect, 100 complete control)
Method in brief: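 Plants grow to 1- to 4-leaf stage (2–18 cm) for postemergence spraying, or to 2-leaf stage for the paddy test. Formulated compound is applied. Greenhouse holding lasts 13–15 days. Response is scored visually relative to controls, 0 no effect to 100 complete control; a dash means no result.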

lambsquarters = assay: Test B pre-/postemergence herbicide test; assay type: in vivo, Chenopodium album; settings: for Lambsquarters plant response rating: postemergence
Method in brief: as §3

morningglory = assay: Test B pre-/postemergence herbicide test; assay type: in vivo, Ipomoea coccinea; settings: for Morningglory plant response rating: postemergence
Method in brief: as §4

Surinam grass = assay: Test B pre-/postemergence herbicide test; assay type: in vivo, Urochloa decumbens; settings: for Surinam Grass plant response rating: postemergence
Method in brief: as §3

rice [5] = assay: Test B pre-/postemergence herbicide test; assay type: in vivo, Oryza sativa; settings: 0 = no effect, 100 = complete control, preemergence
Method in brief: as §3

cocklebur = assay: Test B pre-/postemergence herbicide test; assay type: in vivo, Xanthium strumarium; settings: for Cocklebur plant response rating: postemergence
Method in brief: as §4

giant foxtail = assay: Test B pre-/postemergence herbicide test; assay type: in vivo, Setaria faberi; settings: for Foxtail, Giant plant response rating: postemergence
Method in brief: as §3

[6] = 125 g ai/ha, visual rating, scale 0 (no effect) to 100 (complete control)
[7] = 500 g ai/ha, scale 0 to 100, 0 is no effect, 100 is complete control
[8] = 125 g ai/ha, 0 = no effect, 100 = complete control, preemergence
[9] = 500 g ai/ha, visual rating, 0 = no effect, 100 = complete control, preemergence

`CCc1nn(C(C)(C)C)cc1C(=O)Nc1cccc(C(=O)N(C)C)n1` [Compound 292] was tested, and the “Sedge, Umbrella plant response rating” value [1] was 60, the “Oat, Wild plant response rating” value (wild oat; [6]) was 10 and the “Oat, Wild plant response rating” value (wild oat; [7]) was 40. For the same compound, the “Corn plant response rating (0 to 100 scale)” value (corn; [8]) was 0, the “Corn plant response rating” value (corn; [6]) was 10 and the “Plant response rating, Corn” value (corn; [9]) was 80. For the same compound, the “Corn plant response rating” value (corn; [7]) was 20, the “Barnyardgrass plant response rating” value (barnyardgrass [2]) was 20 and the “Blackgrass plant response rating” value (blackgrass; [6]) was 10. The “Blackgrass plant response rating” value (blackgrass; [7]) was 20, the “Pigweed plant response rating (0 to 100 scale)” value (pigweed; [8]) was 40 and the “Pigweed plant response rating” value (pigweed; [6]) was 20. The “Plant response rating, Pigweed” value (pigweed; [9]) was 100, the “Pigweed plant response rating” value (pigweed; [7]) was 30 and the “Velvetleaf plant response rating” value (velvetleaf; [6]) was 10. The “Plant response rating, Velvetleaf” value (velvetleaf; [9]) was 70, the “Velvetleaf plant response rating” value (velvetleaf; [7]) was 10 and the “Barnyardgrass plant response rating (0 to 100 scale)” value (barnyardgrass [3]; [8]) was 10. For the same compound, the “Barnyardgrass plant response rating” value (barnyardgrass [3]; [6]) was 0, the “Plant response rating, Barnyardgrass” value (barnyardgrass [3]; [9]) was 90 and the “Barnyardgrass plant response rating” value (barnyardgrass [3]; [7]) was 0. The “Wheat plant response rating” value (wheat; [6]) was 0, the “Wheat plant response rating” value (wheat; [7]) was 20 and the “Ducksalad plant response rating” value (ducksalad) was 0. The “Crabgrass, Large plant response rating (0 to 100 scale)” value (large crabgrass; [8]) was 80, the “Crabgrass, Large plant response rating” value (large crabgrass; [6]) was 0 and the “Plant response rating, Crabgrass, Large” value (large crabgrass; [9]) was 100. The “Crabgrass, Large plant response rating” value (large crabgrass; [7]) was 10, the “Rice plant response rating” value (rice [4]) was 30 and the “Lambsquarters plant response rating (0 to 100 scale)” value (lambsquarters; [8]) was 70. For the same compound, the “Lambsquarters plant response rating” value (lambsquarters; [6]) was 30, the “Plant response rating, Lambsquarters” value (lambsquarters; [9]) was 100 and the “Lambsquarters plant response rating” value (lambsquarters; [7]) was 70. The “Morningglory plant response rating (0 to 100 scale)” value (morningglory; [8]) was 0, the “Morningglory plant response rating” value (morningglory; [6]) was 0 and the “Plant response rating, Morningglory” value (morningglory; [9]) was 30. The “Morningglory plant response rating” value (morningglory; [7]) was 20, the “Surinam Grass plant response rating (0 to 100 scale)” value (Surinam grass; [8]) was 20 and the “Surinam Grass plant response rating” value (Surinam grass; [6]) was 0. The “Plant response rating, Surinam Grass” value (Surinam grass; [9]) was 100, the “Surinam Grass plant response rating” value (Surinam grass; [7]) was 20 and the “Rice plant response rating (0 to 100 scale)” value (rice [5]; 125 g ai/ha) was 0. For the same compound, the “Plant response rating, Rice” value (rice [5]; 500 g ai/ha, visual rating) was 90, the “Cocklebur plant response rating (0 to 100 scale)” value (cocklebur; [8]) was 0 and the “Cocklebur plant response rating” value (cocklebur; [6]) was 0. The “Plant response rating, Cocklebur” value (cocklebur; [9]) was 40, the “Cocklebur plant response rating” value (cocklebur; [7]) was 10 and the “Foxtail, Giant plant response rating (0 to 100 scale)” value (giant foxtail; [8]) was 0. For the same compound, the “Foxtail, Giant plant response rating” value (giant foxtail; [6]) was 0, the “Plant response rating, Foxtail, Giant” value (giant foxtail; [9]) was 70 and the “Foxtail, Giant plant response rating” value (giant foxtail; [7]) was 20.
